Reference: patent US8106204B2, “Substituted 2-amino-4-phenyldihydroquinolines, processes for their preparation, pharmaceutical compositions and methods for their use” (Sanofi-Aventis, priority 2006, dated 2012)
Structures can show the parent of a compound that is named as a salt.

Molecular target: T1, NHE-3 (Homo sapiens, UniProt P48764)
T1 sequence (P48764 26-834): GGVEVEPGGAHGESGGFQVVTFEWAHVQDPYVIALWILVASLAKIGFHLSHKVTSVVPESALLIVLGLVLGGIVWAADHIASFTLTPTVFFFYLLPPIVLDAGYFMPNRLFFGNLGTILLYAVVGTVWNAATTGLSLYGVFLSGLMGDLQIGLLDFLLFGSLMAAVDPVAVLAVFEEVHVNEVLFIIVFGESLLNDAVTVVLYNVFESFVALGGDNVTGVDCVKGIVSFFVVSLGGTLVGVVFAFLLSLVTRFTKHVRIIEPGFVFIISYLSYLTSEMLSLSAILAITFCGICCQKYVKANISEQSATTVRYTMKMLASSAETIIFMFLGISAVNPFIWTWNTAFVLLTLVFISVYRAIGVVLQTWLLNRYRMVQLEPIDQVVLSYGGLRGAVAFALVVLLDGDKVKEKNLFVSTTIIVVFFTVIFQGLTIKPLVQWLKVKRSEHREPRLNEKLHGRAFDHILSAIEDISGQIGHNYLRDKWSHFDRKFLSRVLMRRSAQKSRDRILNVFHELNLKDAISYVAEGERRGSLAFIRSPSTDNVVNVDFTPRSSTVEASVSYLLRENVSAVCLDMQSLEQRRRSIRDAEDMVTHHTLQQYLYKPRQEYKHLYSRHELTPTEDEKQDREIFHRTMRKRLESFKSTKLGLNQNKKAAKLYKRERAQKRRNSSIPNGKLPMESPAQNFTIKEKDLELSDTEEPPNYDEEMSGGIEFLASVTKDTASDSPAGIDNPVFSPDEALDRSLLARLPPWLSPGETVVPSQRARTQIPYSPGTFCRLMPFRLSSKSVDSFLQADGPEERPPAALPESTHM
Experiment: Determination of the NHE-inhibitory effect (recovery of intracellular pH after acidification, BCECF fluorescence)
Type: cell-based
Conditions: pH recovery recorded for three minutes with NHE-3; BCECF-loaded cells
Description: Description of Assay: Determination of the NHE-Inhibitory Effect In this assay, the recovery of the intracellular pH (pHj) after an acidification which occurs even under bicarbonate-free conditions with functional NHE was determined. To this end, the pHj was determined using the pH-sensitive fluorescent dye BCECF (Calbiochem, the precursor BCECF-AM was employed). The cells were initially loaded with BCECF. The BCECF fluorescence was determined in a ratio fluorescence spectrometer (Photon Technology International, South Brunswick, N.J., USA) with excitation wavelengths of 505 and 440 nm and an emission wavelength of 535 nm and converted into the pHj using calibration plots. The cells had been incubated in NH4Cl buffer (pH 7.4) for the BCECF loading (NH4Cl buffer: 115 mM NaCl, 20 mM NH4Cl, 5 mM KCl, 1 mM CaCl2, 1 mM MgSO4, 20 mM Hepes, 5 mM glucose, 1 mg/ml BSA; a pH of 7.4 was adjusted with 1 M NaOH). The intracellular acidification was induced by adding 975 μl of an NH4Cl-free buffer (see below) to 25 μl aliquots of the cells incubated in NH4Cl buffer. The subsequent rate of pH recovery was recorded for two minutes with NHE1, five minutes with NHE2 and three minutes with NHE-3. To calculate the inhibitory power of the tested substances, the cells were initially investigated in buffers with which there was complete or absolutely no pH recovery. For complete pH recovery (100%), the cells were incubated in Na^+-containing buffer (133.8 mM NaCl, 4.7 mM KCl, 1.25 mM CaCl2, 1.25 mM MgCl2, 0.97 mM Na2HPO4, 0.23 mM NaH2PO4, 5 mM Hepes, 5 mM glucose, a pH of 7.0 was adjusted with 1 M NaOH). To determine the 0% value, the cells were incubated in an Na^+-free buffer (133.8 mM choline chloride, 4.7 mM KCl, 1.25 mM CaCl2, 1.25 mM MgCl2, 0.97 mM K2HPO4, 0.23 mM KH2PO4, 5 mM Hepes, 5 mM glucose, a pH of 7.0 was adjusted with 1 M NaOH). The substances to be tested were made up in the Na^+-containing buffer. The recovery of the intracellular pH at each tested concentration of a substance was expressed as a percentage of the maximum recovery. The IC50 of the respective substance for the individual NHE subtypes was calculated from the percentages of pH recovery using the Sigma Plot program.

Row | IC50 [µM] | Structure (SMILES)
1 | 10.9 | CCNC1=Nc2ccc(Cl)cc2C(c2ccc(N)cc2)C1 (stereo not shown) [Example 2, 4-(4-Aminophenyl)-6-chloro-2-ethylamino-3,4-dihydroquinoline hydrochloride]
2 | 13.8 | CCN(CC)C1=Nc2ccc(Cl)cc2C(c2ccc(NC(=O)NCCN(C)C)cc2)C1 (stereo not shown) [Example 4, N-(2-Dimethylaminoethyl)-N′-4-[(6-chloro-3,4-dihydro-2-diethyl-aminoquinolin-4-yl)phenyl]urea hydrochloride]
3 | 9.19 | CCN(CC)C1=Nc2ccc(Cl)cc2C(c2ccc(N)cc2)C1 (stereo not shown) [Example 3, 4-(4-Aminophenyl)-6-chloro-2-diethylamino-3,4-dihydroquinoline hydrochloride]
4 | 4.39 | NC1=Nc2ccc(Cl)cc2C(c2ccc(N)cc2)C1 (stereo not shown) [Example 1, 2-Amino-4-(4-aminophenyl)-6-chloro-3,4-dihydroquinoline hydrochloride]
